According to patent publication US12590071B2, “Hydrazone derivative in which terminal amine group is substituted with aryl group or heteroaryl group, and use thereof” (KOREA INSTITUTE OF SCIENCE AND TECHNOLOGY, priority 2018, dated 2026):

Columns and labels:
tau protein = biological target: T1, tau protein (Homo sapiens, UniProt P10636); assay: Tau protein aggregation inhibition in tau-BiFC cell model; type: cell-based; settings: tau-BiFC cells treated together with Forskolin, 48 hours
T1 construct: expressed in transfected cells
T1 sequence (P10636 2-441 isoform P10636-8 limits assumed): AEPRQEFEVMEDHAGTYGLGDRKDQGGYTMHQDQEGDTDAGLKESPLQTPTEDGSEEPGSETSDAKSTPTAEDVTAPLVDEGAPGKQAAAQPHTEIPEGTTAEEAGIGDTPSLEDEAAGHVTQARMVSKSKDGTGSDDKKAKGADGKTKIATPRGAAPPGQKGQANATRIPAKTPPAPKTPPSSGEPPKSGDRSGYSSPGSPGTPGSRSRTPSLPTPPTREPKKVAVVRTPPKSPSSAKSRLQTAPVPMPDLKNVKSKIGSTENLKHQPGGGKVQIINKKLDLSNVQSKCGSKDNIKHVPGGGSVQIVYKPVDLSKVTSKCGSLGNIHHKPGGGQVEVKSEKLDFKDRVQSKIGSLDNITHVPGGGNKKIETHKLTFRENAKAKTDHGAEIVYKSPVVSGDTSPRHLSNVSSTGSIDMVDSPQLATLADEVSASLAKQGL
Experimental: (§1) In order to select new tau protein aggregation-inhibiting materials, tau-BiFC cell models, in which it is easy to observe the formation of tau oligomers in living cells, were used. […] After 48 hours, intracellular nuclei were stained using Hoechst (treatment concentration 2 μg/mL), and BiFC fluorescence intensity was automatically quantified using Operetta (PerkinElmer) to count stained nuclei in each well from the total well plates. […] Further, the degree of cytotoxicity induced by the newly synthesized compound is also based on the 100% survival rate of the group treated with Forskolin alone, and the cytotoxicity value of the compound was calculated by the equation “number of stained nuclei in the group treated with the compound/number of stained nuclei in the group treated with Forskolin x 100”.
(§2) In order to evaluate dose-dependent tau protein aggregation inhibition effects of the compounds selected according to Experimental Example 1, the selected compounds were treated in tau-BiFC cells at concentrations of 0.03 µM, […], 0.3 μM, 1 μM, 3 μM, 10 μM, and 30 μM, respectively, together with Forskolin (treatment concentration 30 µM) as a tau protein aggregation inducing material. After 48 hours, tau protein aggregation reaction and cytotoxicity degree were analyzed by observing cell images. The IC50 and toxicity of the compounds were analyzed by nonlinear regression analysis of prism software (Graph Pad).

Tau-BiFC cells = assay: Cytotoxicity (cell survival rate) in tau-BiFC cells; settings: group treated with Forskolin alone = 100%
Experimental: as §1, §2

CYP1A2 = biological target: T2, CYP1A2 (Homo sapiens, UniProt P05177); assay: Inhibition of CYP coenzyme activity in human liver microsomes; type: in vitro ADME; settings: compound 10 PM (so in the source); human liver microsomes 0.25 mg/mL; substrate phenacetin; 15 minutes
T2 construct: human liver microsomes (0.25 mg/mL); from tissue; host or cells: human liver microsomes
T2 sequence (P05177 1-516): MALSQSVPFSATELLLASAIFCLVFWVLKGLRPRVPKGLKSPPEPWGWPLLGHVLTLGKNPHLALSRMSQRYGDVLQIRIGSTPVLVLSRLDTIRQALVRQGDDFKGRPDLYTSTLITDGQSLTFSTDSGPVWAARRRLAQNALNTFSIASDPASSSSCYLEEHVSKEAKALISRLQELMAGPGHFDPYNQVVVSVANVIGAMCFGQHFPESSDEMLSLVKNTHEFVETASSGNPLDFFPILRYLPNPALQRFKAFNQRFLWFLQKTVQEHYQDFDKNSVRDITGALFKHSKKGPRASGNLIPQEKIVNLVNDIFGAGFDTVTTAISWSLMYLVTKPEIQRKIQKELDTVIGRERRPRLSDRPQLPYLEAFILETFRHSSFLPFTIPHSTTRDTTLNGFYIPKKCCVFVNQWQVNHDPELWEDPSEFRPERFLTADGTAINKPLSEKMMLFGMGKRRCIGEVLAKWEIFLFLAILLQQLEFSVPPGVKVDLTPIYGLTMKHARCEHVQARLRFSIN
Experimental: (§3) 5 The inhibition effects of CYP coenzyme activity by the compounds prepared according to Examples 1 to 171 was confirmed. Specifically, human liver microsomes (0.25 mg/mL), a 0.1 M phosphate buffer solution (pH 7.4), substrate drug cocktails (phenacetin 50 μM, diclofenac 10 μM, S-mephenytoin 100 μM, dextromethorphan 5 μM, and midazolam 2.5 μM) of five kinds of drug metabolism enzymes, and the compounds with a concentration of 0 μM or 10 PM were added, respectively. Then the mixture was cultured in advance at 37° C. for 5 minutes, and then further cultured at 37° C. for 15 minutes together with the addition of an NADPH generation system solution. Thereafter, a reaction was terminated by adding an acetonitrile solution containing an internal standard material (terfenadine), centrifugal separation (14,000 rpm, 4° C.) was performed for 5 minutes, and then a supernatant was injected into an LC-MS/MS system. Metabolites of the substrate drugs were simultaneously analyzed to evaluate the drug metabolism inhibition ability.
(§4) Metabolites of each CYP coenzyme indicator drug generated through the reaction were analyzed using the Shimadzu Nexera XR system and TSQ vantage (Thermo). Kinetex C18 (2.1 mm×100 mm, 2.6 μm, particle size; Phenomenex, USA) was used in an HPLC column, and (A) distilled water containing 0.1% formic acid and (B) acetonitrile containing 0.1% formic acid were used as mobile phases, and the gradient program shown in Table 2 was applied.
(§5) The generated metabolites were quantified using an MRM (multiple reaction monitoring) quantification mode, and Xcalibur (version 1.6.1) was used for data analysis.

CYP2C19 = biological target: T3, CYP2C19 (Homo sapiens, UniProt P33261); assay: as above; type: in vitro ADME; settings: compound 10 PM (so in the source); human liver microsomes 0.25 mg/mL; substrate S-mephenytoin; 15 minutes
T3 construct: human liver microsomes (0.25 mg/mL); from tissue; host or cells: human liver microsomes
T3 sequence (P33261 whole entry): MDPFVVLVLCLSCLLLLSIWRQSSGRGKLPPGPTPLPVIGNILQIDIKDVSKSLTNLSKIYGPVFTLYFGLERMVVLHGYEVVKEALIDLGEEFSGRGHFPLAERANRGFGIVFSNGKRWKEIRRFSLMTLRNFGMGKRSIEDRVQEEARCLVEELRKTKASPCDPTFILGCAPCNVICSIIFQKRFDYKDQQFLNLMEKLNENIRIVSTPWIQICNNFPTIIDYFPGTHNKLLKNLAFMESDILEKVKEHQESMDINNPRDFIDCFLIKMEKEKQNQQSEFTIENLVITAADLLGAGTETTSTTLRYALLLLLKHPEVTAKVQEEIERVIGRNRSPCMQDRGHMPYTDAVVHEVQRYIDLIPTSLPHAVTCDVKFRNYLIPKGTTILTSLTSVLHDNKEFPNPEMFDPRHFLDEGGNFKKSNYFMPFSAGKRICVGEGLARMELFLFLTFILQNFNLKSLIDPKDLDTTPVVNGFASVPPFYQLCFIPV
Experimental: as §3, §4, §5

CYP2C9 = biological target: T4, CYP2C9 (Homo sapiens, UniProt P11712); assay: as above; type: in vitro ADME; settings: compound 10 PM (so in the source); human liver microsomes 0.25 mg/mL; substrate diclofenac; 15 minutes
T4 construct: human liver microsomes (0.25 mg/mL); from tissue; host or cells: human liver microsomes
T4 sequence (P11712 whole entry): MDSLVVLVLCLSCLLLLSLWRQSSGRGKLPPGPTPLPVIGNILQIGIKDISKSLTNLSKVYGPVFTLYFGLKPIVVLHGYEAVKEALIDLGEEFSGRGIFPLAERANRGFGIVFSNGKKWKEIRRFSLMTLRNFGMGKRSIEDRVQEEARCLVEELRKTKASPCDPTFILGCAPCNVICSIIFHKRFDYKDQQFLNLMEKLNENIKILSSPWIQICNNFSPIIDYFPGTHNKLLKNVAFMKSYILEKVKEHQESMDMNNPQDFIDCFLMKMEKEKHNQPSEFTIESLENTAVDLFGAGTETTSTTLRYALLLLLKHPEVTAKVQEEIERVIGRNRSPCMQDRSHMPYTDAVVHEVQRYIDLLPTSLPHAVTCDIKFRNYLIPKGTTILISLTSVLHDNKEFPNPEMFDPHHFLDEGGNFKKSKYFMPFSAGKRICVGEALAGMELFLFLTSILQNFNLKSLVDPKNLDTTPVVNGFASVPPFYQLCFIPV
Experimental: as §3, §4, §5

CYP2D6 = biological target: T5, CYP2D6 (Homo sapiens, UniProt P10635); assay: as above; type: in vitro ADME; settings: compound 10 PM (so in the source); human liver microsomes 0.25 mg/mL; substrate dextromethorphan; 15 minutes
T5 construct: human liver microsomes (0.25 mg/mL); from tissue; host or cells: human liver microsomes
T5 sequence (P10635 whole entry): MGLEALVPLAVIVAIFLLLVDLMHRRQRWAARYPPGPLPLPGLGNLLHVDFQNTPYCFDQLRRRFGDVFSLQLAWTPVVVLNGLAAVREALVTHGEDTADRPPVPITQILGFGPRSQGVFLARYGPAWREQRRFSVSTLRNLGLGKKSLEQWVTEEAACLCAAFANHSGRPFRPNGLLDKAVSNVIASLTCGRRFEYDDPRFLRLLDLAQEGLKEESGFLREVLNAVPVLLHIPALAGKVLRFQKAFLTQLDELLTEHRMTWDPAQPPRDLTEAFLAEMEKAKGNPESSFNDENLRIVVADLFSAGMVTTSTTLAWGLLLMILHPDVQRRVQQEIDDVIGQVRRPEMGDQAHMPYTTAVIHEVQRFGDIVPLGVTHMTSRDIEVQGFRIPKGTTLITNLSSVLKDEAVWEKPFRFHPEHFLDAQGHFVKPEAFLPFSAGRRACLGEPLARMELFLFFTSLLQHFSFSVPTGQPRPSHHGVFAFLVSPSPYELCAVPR
Experimental: as §3, §4, §5

CYP3A4 = biological target: T6, CYP3A4 (Homo sapiens, UniProt P08684); assay: as above; type: in vitro ADME; set-up: scale not given here; settings: compound 10 PM (so in the source); human liver microsomes 0.25 mg/mL; substrate midazolam; 15 minutes
T6 construct: human liver microsomes (0.25 mg/mL); from tissue; host or cells: human liver microsomes
T6 sequence (P08684 whole entry): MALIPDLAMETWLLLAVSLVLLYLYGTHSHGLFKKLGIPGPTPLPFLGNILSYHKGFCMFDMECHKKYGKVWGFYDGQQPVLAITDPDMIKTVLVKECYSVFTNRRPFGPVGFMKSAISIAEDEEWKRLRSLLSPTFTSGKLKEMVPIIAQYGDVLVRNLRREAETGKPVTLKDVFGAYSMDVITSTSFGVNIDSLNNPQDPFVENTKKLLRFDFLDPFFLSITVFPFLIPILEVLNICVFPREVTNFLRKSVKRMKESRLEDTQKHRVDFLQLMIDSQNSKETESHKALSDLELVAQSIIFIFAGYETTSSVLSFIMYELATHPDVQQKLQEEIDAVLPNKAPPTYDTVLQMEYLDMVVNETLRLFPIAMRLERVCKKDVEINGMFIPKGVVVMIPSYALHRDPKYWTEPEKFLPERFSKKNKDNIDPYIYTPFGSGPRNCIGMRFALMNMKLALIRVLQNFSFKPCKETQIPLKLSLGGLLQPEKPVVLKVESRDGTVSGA
Experimental: as §3, §4, §5

[1] = Liver microsomal stability (human); type: in vitro ADME; settings: amount of substrate remaining; 1 μM, 0.25 mg/mL microsomes, 37° C., 30 minutes
Experimental: (§6) The liver microsomal stability of the compounds prepared according to Examples 1 to 171 was confirmed. Specifically, four kinds of liver microsomes (human, dog, rat, and mouse, each 0.25 mg/mL), a 0.1 M phosphate buffer solution (pH 7.4), and the compounds with a concentration of 1 μM were added, respectively. Then the mixture was cultured in advance at 37° C. for 5 minutes, and then further cultured at 37° C. for 30 minutes together with the addition of an NADPH generation system solution. Thereafter, a reaction was terminated by adding an acetonitrile solution containing an internal standard material (chloropropamide), centrifugal separation (14,000 rpm, 4° C.) was performed for 5 minutes, and then a supernatant was injected into an LC-MS/MS system. The substrate drugs were analyzed to evaluate the metabolic stability for 8 kinds of compounds.
(§7) The amount of substrate remaining through the reaction was analyzed using the Shimadzu Nexera XR system and TSQ vantage (Thermo). Kinetex XB-C18 (2.1 mm×100 mm, 2.6 μm, particle size; Phenomenex, USA) was used in an HPLC column, and (A) distilled water containing 0.1% formic acid and (B) acetonitrile containing 0.1% formic acid were used as mobile phases. Analyst software (version 1.6.3) and Xcalibur (version 1.6.1) were used for data analysis.

[2] = Liver microsomal stability (dog); type: in vitro ADME; settings: amount of substrate remaining; 1 μM, 0.25 mg/mL microsomes, 37° C., 30 minutes
Experimental: as §6, §7

[3] = Liver microsomal stability (rat); type: in vitro ADME; settings: amount of substrate remaining; 1 μM, 0.25 mg/mL microsomes, 37° C., 30 minutes
Experimental: as §6, §7

[4] = Liver microsomal stability (mouse); type: in vitro ADME; settings: amount of substrate remaining; 1 μM, 0.25 mg/mL microsomes, 37° C., 30 minutes
Experimental: as §6, §7

SMILES | IC50 (tau protein) | Cell survival rate (% @ 10 μM) (Tau-BiFC cells) | inhibition effects of CYP coenzyme activity, CYP1A2 (CYP1A2) | inhibition effects of CYP coenzyme activity, CYP2C19 (CYP2C19) | inhibition effects of CYP coenzyme activity, CYP2C9 (CYP2C9) | inhibition effects of CYP coenzyme activity, CYP2D6 (CYP2D6) | inhibition effects of CYP coenzyme activity, CYP3A4 (CYP3A4) | liver microsomal stability, Human (%) [1] | liver microsomal stability, Dog (%) [2] | liver microsomal stability, Rat (%) [3] | liver microsomal stability, Mouse (%) [4]
N#CC(C#N)=NNc1ccc2nc(NC(=O)c3cnccn3)sc2c1 [Compound 92, (2-(pyrazine-2-carboxamido)benzo[d]thiazol-6-yl)carbonohydrazonoyl dicyanide] | 240 nM | 119.5% | 64.1 | 90.5 | 46.8 | 99.1 | 85.5 | 74.6% | 74.7% | 72.7% | 51.9%
Cc1ccnc(-c2ccc(NN=C(C#N)C#N)c(F)c2)n1 [Compound 37, (2-fluoro-4-(4-methylpyrimidin-2-yl)phenyl)carbonohydrazonoyl dicyanide] | 1340 nM | 88.3% | 78.1 | 100 | 56.9 | >100 | >100 | 55.7% | 61% | 25.9% | 32.7%
Cn1cc2c(-c3ccc(NN=C(C#N)C#N)cc3)cccc2n1 [Compound 55, (4-(2-methyl-2H-indazol-4-yl)phenyl)carbonohydrazonoyl dicyanide] | 1000 nM | 120.1% | 66.9 | 86 | 59.5 | >100 | 87.6 | 70% | 85.6% | 60.8% | 71.2%
COc1cnc(-c2ccc(NN=C(C#N)C#N)cc2)nc1 [Compound 8, (4-(5-methoxypyrimidin-2-yl)-phenyl)carbonohydrazonoyl dicyanide] | 20 nM | 107.8% | 94.1 | >100 | 85.1 | >100 | >100 | 80.9% | 96% | 40.7% | 83.7%
N#CC(C#N)=NNc1ccc(-n2cccn2)cc1 [Compound 35, (4-(1H-pyrazol-1-yl)phenyl)carbonohydrazonoyl dicyanide] | 1700 nM | 100% | 99.9 | >100 | 81.3 | >100 | >100 | 82.2% | 24.2% | 56.4% | 10.7%
CN(C)c1ccc(-c2ccc(NN=C(C#N)C#N)cc2)cc1 [Compound 151, (4′-(dimethylamino)biphenyl-4-yl)carbohydrazonoyl dicyanide] | 650 nM | 69.5% | 94.4 | 85.2 | 83.6 | 94.6 | 94.4 | 94.4% | 83.6% | 85.2% | 94.6%
Cn1ncc2ccc(NN=C(C#N)C#N)cc21 [Compound 63, (1-methyl-1H-indazol-6-yl)carbonohydrazonoyl dicyanide] | 740 nM | 111.4% | 43.3 | >100 | 84.2 | >100 | >100 | 87.4% | 82.6% | 72.1% | 9.5%
N#CC(C#N)=NNc1ccc2[nH]ncc2c1 [Compound 69, (1H-indazol-5-yl)carbonohydrazonoyl dicyanide] | 190 nM | 204.7% | 80.1 | 82.1 | 16.6 | >100 | 95.2 | 97.6% | 71.9% | 64.4% | 34.2%
